Measured values from patent publication US20230067277A1, “ANALOGUES OF MYCOSPORINE-LIKE AMINO ACID AND USE THEREOF AS SUNSCREENS” (BASF SE, priority 2020, published 2023).

Experiments:
Format in all cases: physicochemical
[1] = Specific extinction coefficient (UV/VIS spectrophotometer); conditions: for E (1%, 1 cm), maximum absorbance: d=1 cm, 250 nm to 500 nm
Procedure: The specific extinction coefficient of Compounds A to D was measured using a Perkin Elmer Lambda 650 UV/VIS Spectrophotometer. A stock solution of concentration c=1 mM of the UV-absorber was prepared in a 100 ml volumetric flask using either buffer or ethanol. Dilution steps followed in order to adjust the concentration, such that the extinction E at optical pathlength d=1 cm will be 1.0±0.5. UV spectrum was determined in a cuvette of an optical pathlength of d=1 cm at 250 nm to 500 nm. With the Beer-Lambert law one obtains the molar decadic extinction coefficient at any wavelength with: The respective specific extinction E %1.1 cm can be obtained via the following equation: […] where M=molecular weight of the UV-absorber. A di-sodium hydrogen phosphate/potassium dihydrogen phosphate buffer (ordering number 1.09439.1000) or ethanol (ordering number 1.00983.2511), each purchased from Merck was used.

[2] = Solubility test in cosmetic solvents and water; conditions: for solubility: % m/V; for precipitation visible after: addition to the respective solvent
Procedure: The solubility of Compounds A to D was tested, wherein the addition of Compound A and B to the respective solvent had been stopped after 50% m/V. In case of Compound C and D, a precipitation after about 1% m/V had been visible. The respective pH-values (see Table 1) had been measured of the final solution or suspension, respectively.

[3] = Incorporation of UV filter into water phase of cosmetic formulation; conditions: 2.00 in Formulations 1, 2 and 4; pH 7-8
Procedure: Formulations 1 to 4 and a Placebo formulation were manufactured as follows. Part A and part B (see Table 3) were prepared separately and heated to 75-80° C. Under increasing stirring, part B was incorporated to part A and homogenized with Ultra Turrax for 20 sec. at 11000 rpm. The mixture was let cooled down to rt under stirring and part C was added. At rt pH 7-8 was adjusted with NaOH.

[4] = Water, addition of Compound A and B stopped after 50% m/V
[5] = cosmetic solvent Cetiol Ultimate

Structure (SMILES) | E (1%, 1 cm), maximum absorbance ([1]; in EtOH) | pH-value of the final solution or suspension ([2]; Water) | solubility [2, 4] [%] | precipitation visible after [2] | solubility ([2]; cosmetic solvent Cetiol AB) | solubility [2, 5] | solubility ([2]; cosmetic solvent Myritol 318) | incorporation of UV filter into the water phase in sufficiently high concentrations [3] | E (1%, 1 cm), maximum absorbance ([1]; buffer pH7 (phosphate buffer)) | specific extinction coefficient / absorbance, comparison among Compounds A to D (FIG. 1) ([1]; FIG. 1)
CC1=C(Nc2ccccc2Br)CC/C1=N\c1ccccc1Br.Cc1ccc(S(=O)(=O)O)cc1 [Compound D, (E)-2-bromo-N-(3-((2-bromophenyl)amino)-2-methylcyclopent-2-en-1-ylidene)benzenaminium 4-methylbenzenesulfonate] | 659 | (pH 7) | <1.0 | about 1 % m/V | <1.2% | <1.0% | <1.0% | not been possible to solve | – | –
COc1ccc(/N=C2\CCC(Nc3ccc(OC)cc3)=C2C)cc1.Cc1ccc(S(=O)(=O)O)cc1 [Compound C, (E)-4-methoxy-N-(3-((4-methoxyphenyl)amino)-2-methylcyclopent-2-en-1-ylidene)benzenaminium 4-methylbenzenesulfonate] | 737 | (pH 7) | <1.0 | about 1 % m/V | <1.2% | <1.0% | <1.0% | – | – | –
CC1=C(NCCOCCO)CCC/C1=N\CCOCCO.Cl [Compound A, (E)-2-(2-hydroxyethoxy)-N-(3-((2-(2-hydroxyethoxy)ethyl)amino)-2-methylcyclohex-2-en-1-ylidene)ethan-1-aminium chloride] | – | (pH 6) | >50.0 | – | insoluble | insoluble | insoluble | could be incorporated into the water phase in sufficiently high concentrations | 943 | –
CC1=C(NCCO)CCC/C1=N\CCO.Cl [Compound B, (E)-2-hydroxy-N-(3-((2-hydroxyethyl)amino)-2-methylcyclohex-2-en-1-ylidene)ethan-1-aminium chloride] | – | (pH 6) | >50.0 | – | insoluble | insoluble | insoluble | could be incorporated into the water phase in sufficiently high concentrations | 1725 | highest specific extinction coefficient
